In PubChem BioAssay AID330 (DTP/NCI, 2004):
Where “and” joins values, the source holds several entries; their conditions need not be identical. Equal values may be shown once. Toxic doses and inconclusive results are not listed.

Test system: P388 leukemia ip, CD2F1 mice, survival T/C
Assay: NCI In Vivo Anticancer Drug Screen. Data for tumor model P388 Leukemia (intraperitoneal) in CD2F1 (CDF1) mice
Conditions: endpoint: median survival time, higher = longer survival
How it was run: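 Mice carrying the transplanted tumor received test compound or vehicle. Survival was recorded in each group, and the value is the treated-group measurement divided by that of the vehicle-treated control group.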

[1] = dose: 100.0 mg/kg/injection, schedule: Q04DX002 (ip), vehicle: saline with Tween-80
[2] = dose: 12.5 mg/kg/injection, schedule: Q01DX009 (ip), vehicle: saline with Tween-80
[3] = dose: 25.0 mg/kg/injection, schedule: Q01DX009 (ip), vehicle: saline with Tween-80
[4] = dose: 50.0 mg/kg/injection, schedule: Q01DX009 (ip), vehicle: saline with Tween-80
[5] = dose: 60.0 mg/kg/injection, schedule: Q01DX005 (ip), vehicle: saline with Tween-80
[6] = dose: 120.0 mg/kg/injection, schedule: Q01DX005 (ip), vehicle: saline with Tween-80
[7] = dose: 240.0 mg/kg/injection, schedule: Q01DX005 (ip), vehicle: saline with Tween-80
[8] = dose: 100.0 mg/kg/injection, schedule: Q01DX009 (ip), vehicle: saline with Tween-80
[9] = dose: 200.0 mg/kg/injection, schedule: Q01DX009 (ip), vehicle: saline with Tween-80

For `COc1ccc2c(c1)CCc1c-2nc[nH]c1=O`, which T/C [1] is on record?
Its T/C is 103 % of control.

What about the T/C (dose: 200.0 mg/kg/injection, schedule: Q04DX002 (ip), vehicle: saline with Tween-80) of the same compound?
The T/C was 96 % of control.

What about the T/C (dose: 400.0 mg/kg/injection, schedule: Q04DX002 (ip), vehicle: saline with Tween-80) of the same compound?
The T/C was 96 % of control.

Which T/C [2] does the source give for `CCOC(=O)/C(C#N)=C/C=C1\C=CC=CN1C` here?
The T/C was 95 % of control.

And the T/C [3]?
The T/C was 86 % of control.

And the T/C [4]?
Its T/C is 90 % of control.

For `COc1cc2ccc3c(c2cc1OC)N(C)C(OC)c1cc2c(cc1-3)OCO2` (centres undefined), which T/C (dose: 10.0 mg/kg/injection, schedule: Q01DX009 (ip), vehicle: Klucel (hydroxypropylcellulose) (HPC)) is on record?
The T/C was 153 % of control.

What about the T/C (dose: 40.0 mg/kg/injection, schedule: Q01DX009 (ip), vehicle: Klucel (hydroxypropylcellulose) (HPC)) of the same compound?
The T/C was 173 % of control.

What about the T/C (dose: 80.0 mg/kg/injection, schedule: Q01DX009 (ip), vehicle: Klucel (hydroxypropylcellulose) (HPC)) of the same compound?
Its T/C is 110 % of control.

With `S=C([S-])N1CC[n+]2c(-c3ccccc3)csc21` as the compound, how does the T/C (dose: 50.0 mg/kg/injection, schedule: Q01DX009 (ip), vehicle: saline) read?
Its T/C is 101 % of control.

And the T/C (dose: 100.0 mg/kg/injection, schedule: Q01DX009 (ip), vehicle: saline)?
Its T/C is 100 % of control.

What about the T/C (dose: 200.0 mg/kg/injection, schedule: Q01DX009 (ip), vehicle: saline) of the same compound?
The T/C was 91 % of control.

`O=C1c2ccccc2C(=O)N1N1CC1c1ccccc1` (centres undefined) was tested. Which T/C (dose: 50.0 mg/kg/injection, schedule: Q01DX005 (ip), vehicle: saline with Tween-80) did it give?
Its T/C is 106 % of control.

And the T/C (dose: 100.0 mg/kg/injection, schedule: Q01DX005 (ip), vehicle: saline with Tween-80)?
The T/C was 101 % of control.

And the T/C (dose: 200.0 mg/kg/injection, schedule: Q01DX005 (ip), vehicle: saline with Tween-80)?
The T/C was 97 % of control.

For `COC(=O)C12CC3(C)OC1(C)OC(=O)C2(Cc1ccccc1)N3C(C)=O` (centres undefined), which T/C [5] is on record?
Its T/C is 104 % of control.

And the T/C [6]?
The T/C was 104 % of control.

What about the T/C [7] of the same compound?
The T/C was 97 % of control.

For `CN(C)c1ccc(/C=C/C=N/NC(=S)NC23CC4CC(CC(C4)C2)C3)cc1`, which T/C [5] is on record?
The T/C was 89 % of control.

What about the T/C [6] of the same compound?
The T/C was 86 % of control.

Which results are given for `C[CH2][Ge]([Cl])([Cl])[CH2]C`?
T/C (dose: 50.0 mg/kg/injection, schedule: Q01DX005 (ip), vehicle: Klucel (hydroxypropylcellulose) (HPC)): 91 % of control; T/C (dose: 100.0 mg/kg/injection, schedule: Q01DX005 (ip), vehicle: Klucel (hydroxypropylcellulose) (HPC)): 87 % of control

Which T/C [2] does the source give for `COC(=O)C1=C(C)NC2(C)SC1C(C)C2C(=O)OC` (centres undefined) here?
The T/C was 92 % of control and 93 % of control.

And the T/C [3]?
The T/C was 101 % of control and 93 % of control.

What about the T/C [4] of the same compound?
The T/C was 90 % of control and 97 % of control.

And the T/C [8]?
Its T/C is 87 % of control and 90 % of control.

`CCCc1c(C(=O)O)c(-c2cccc3ccccc23)c(CCC)c2c1-c1cccc3cccc-2c13` was tested. Which T/C [4] did it give?
Its T/C is 105 % of control.

And the T/C [8]?
Its T/C is 102 % of control.

And the T/C [9]?
The T/C was 100 % of control.

Which results are given for `COc1cc2ccnc(CCCc3nccc4cc(OC)c(OC)cc34)c2cc1OC`?
T/C (dose: 25.0 mg/kg/injection, schedule: Q04DX002 (ip), vehicle: Klucel (hydroxypropylcellulose) (HPC)): 101 % of control; T/C (dose: 50.0 mg/kg/injection, schedule: Q04DX002 (ip), vehicle: Klucel (hydroxypropylcellulose) (HPC)): 95 % of control; T/C (dose: 100.0 mg/kg/injection, schedule: Q04DX002 (ip), vehicle: Klucel (hydroxypropylcellulose) (HPC)): 101 % of control and 104 % of control

Which results are given for `Cc1ccc(SNc2ccccc2)cc1`?
T/C (dose: 50.0 mg/kg/injection, schedule: Q04DX003 (ip), vehicle: saline with Tween-80): 96 % of control; T/C (dose: 100.0 mg/kg/injection, schedule: Q04DX003 (ip), vehicle: saline with Tween-80): 96 % of control

Which results are given for `CN=C(N)N/N=C(\C)c1ccc2c(c1)Cc1cc(Cl)ccc1-2`?
T/C (dose: 12.5 mg/kg/injection, schedule: Q04DX002 (ip), vehicle: saline with Tween-80): 112 % of control; T/C (dose: 25.0 mg/kg/injection, schedule: Q04DX002 (ip), vehicle: saline with Tween-80): 113 % of control and 118 % of control; T/C (dose: 50.0 mg/kg/injection, schedule: Q04DX002 (ip), vehicle: saline with Tween-80): 113 % of control and 118 % of control; T/C [1]: 102 % of control

Which T/C [5] does the source give for `Cc1ccc(S(=O)(=O)OCC2(COS(=O)(=O)c3ccc(C)cc3)CCC2)cc1` here?
Its T/C is 102 % of control.

What about the T/C [6] of the same compound?
The T/C was 100 % of control.

What about the T/C [7] of the same compound?
The T/C was 100 % of control.

For `CC1(C)NC(=O)N(Br)C1=O`, which T/C [4] is on record?
Its T/C is 104 % of control.

And the T/C [8]?
Its T/C is 100 % of control.

What about the T/C [9] of the same compound?
The T/C was 104 % of control.
